# Test results reported in ChEMBL document CHEMBL1921773, “Carbamates of 4'-demethyl-4-deoxypodophyllotoxin: synthesis, cytotoxicity and cell cycle effects” (Bioorg Med Chem Lett, 2011).
# Legend:
# [1] = system: SiHa; assay: Cytotoxicity against human SiHa cells assessed as growth inhibition after 48 hrs by MTT assay; assay type: functional, cell-based
# [2] = Octanol-water partition coefficient, log P of the compound; assay type: physicochemical
# [3] = system: HL-60; assay: Cytotoxicity against human HL60 cells assessed as growth inhibition after 48 hrs by CCK-8 assay; assay type: functional, cell-based; details: HL-60, 48 h
# [4] = system: A549; assay: Cytotoxicity against human A549 cells assessed as growth inhibition after 48 hrs by MTT assay; assay type: functional, cell-based; details: A549, 48 h
# [5] = system: HeLa; assay: Cytotoxicity against human HeLa cells assessed as growth inhibition after 48 hrs by CCK-8 assay; assay type: functional, cell-based
# [6] = system: A549; assay: Cell cycle arrest in human A549 cells assessed as accumulation of cells at G1 phase at 0.4 uM after 24 hrs by propidium iodide staining-based flow cytometry (reference value: 59.9%); assay type: functional
# [7] = system: A549; assay: Cell cycle arrest in human A549 cells assessed as accumulation of cells at G2/M phase at 0.4 uM after 24 hrs by propidium iodide staining-based flow cytometry (reference value: 3.2%); assay type: functional
# [8] = system: A549; assay: Cell cycle arrest in human A549 cells assessed as accumulation of cells at G2/M phase at 0.4 uM by propidium iodide staining-based flow cytometry (reference value: 3.2%); assay type: functional; details: TDE = time-dependent effect
# [9] = system: A549; assay: Cell cycle arrest in human A549 cells assessed as accumulation of cells at G2/M phase at 0.4 uM after 12 hrs by propidium iodide staining-based flow cytometry (reference value: 3.2%); assay type: functional
# [10] = system: A549; assay: Cell cycle arrest in human A549 cells assessed as accumulation of cells at S phase at 0.4 uM after 24 hrs by propidium iodide staining-based flow cytometry (reference value: 36.7%); assay type: functional
# [11] = system: A549; assay: Cell cycle arrest in human A549 cells assessed as accumulation of cells at G1 phase at 0.4 uM after 12 hrs by propidium iodide staining-based flow cytometry (reference value: 59.9%); assay type: functional
# [12] = system: A549; assay: Cell cycle arrest in human A549 cells assessed as accumulation of cells at S phase at 0.4 uM after 12 hrs by propidium iodide staining-based flow cytometry (reference value: 36.7%); assay type: functional
Structure (SMILES),IC50 [1] [nM],logP [2],IC50 [3] [nM],IC50 [4] [nM],IC50 [5] [nM],Activity [6] [%],Activity [7] [%],Activity [8],Activity [9] [%],Activity [10] [%],Activity [11] [%],Activity [12] [%]
COc1cc([C@@H]2c3cc4c(cc3C[C@H]3COC(=O)[C@@H]32)OCO4)cc(OC)c1OC(=O)N[C@@H](CCSC)C(N)=O,4320,0.28,711,860,2030,,,,,,,
COc1cc([C@@H]2c3cc4c(cc3C[C@H]3COC(=O)[C@@H]32)OCO4)cc(OC)c1OC(=O)N[C@H](Cc1ccccc1)C(N)=O,416,1.33,231,1610,575,,,,,,,
COc1cc([C@@H]2c3cc4c(cc3C[C@H]3COC(=O)[C@@H]32)OCO4)cc(OC)c1OC(=O)N[C@@H](C)C(N)=O,696,-0.09,397,4230,743,,,,,,,
COc1cc([C@@H]2c3cc4c(cc3C[C@H]3COC(=O)[C@@H]32)OCO4)cc(OC)c1O [4'-DEMETHYLDEOXYPODOPHYLLOTOXIN],53300,2.92,2960,1800,43000,,,,,,,
COc1cc([C@@H]2c3cc4c(cc3C[C@H]3COC(=O)[C@@H]32)OCO4)cc(OC)c1OC(=O)N[C@@H](Cc1ccccc1)C(=O)NC1CC1,1120,1.95,416,3370,693,,,,,,,
COc1cc([C@@H]2c3cc4c(cc3C[C@H]3COC(=O)[C@@H]32)OCO4)cc(OC)c1OC(=O)N[C@@H](Cc1ccccc1)C(=O)NC1CCCC1,6870,2.06,988,2690,3070,,,,,,,
COc1cc([C@@H]2c3cc4c(cc3C[C@H]3COC(=O)[C@@H]32)OCO4)cc(OC)c1OC(=O)N[C@@H](CC(C)C)C(N)=O,877,1.26,670,9930,703,,,,,,,
COc1cc([C@@H]2c3cc4c(cc3C[C@H]3COC(=O)[C@@H]32)OCO4)cc(OC)c1OC(=O)N[C@@H](Cc1ccccc1)C(N)=O,1070,1.35,940,3410,1720,,,,,,,
COc1cc([C@@H]2c3cc4c(cc3C[C@H]3COC(=O)[C@@H]32)OCO4)cc(OC)c1OC [DESOXYPODOPHYLLOTOXIN],6010,3.16,470,1380,1980,,,,,,,
COc1cc([C@@H]2c3cc4c(cc3C[C@H]3COC(=O)[C@@H]32)OCO4)cc(OC)c1OC(=O)N[C@H](C(N)=O)C(C)C,2890,0.84,1030,1490,3830,,,,,,,
COc1cc([C@@H]2c3cc4c(cc3[C@@H](O[C@@H]3O[C@@H]5CO[C@@H](C)O[C@H]5[C@H](O)[C@H]3O)[C@H]3COC(=O)[C@H]23)OCO4)cc(OC)c1O [ETOPOSIDE],40400,0.69,2850,24900,2760,,,,,,,
COc1cc([C@@H]2c3cc4c(cc3C[C@H]3COC(=O)[C@@H]32)OCO4)cc(OC)c1OC(=O)N[C@H](C(=O)NC1CCCC1)C(C)C,14600,2.57,1030,1910,20300,,,,,,,
COc1cc([C@@H]2c3cc4c(cc3C[C@H]3COC(=O)[C@@H]32)OCO4)cc(OC)c1OC(=O)N[C@H](C(=O)NC1CC1)C(C)C,432,1.45,213,2310,433,,,,,,,
COc1cc([C@@H]2c3cc4c(cc3C[C@H]3COC(=O)[C@@H]32)OCO4)cc(OC)c1OC(=O)N[C@H](CCSC)C(N)=O,614,0.26,89.3,887,528,11.2,58.1,tde,27.7,30.7,22.6,49.7
CC[C@H](C)[C@H](NC(=O)Oc1c(OC)cc([C@@H]2c3cc4c(cc3C[C@H]3COC(=O)[C@@H]32)OCO4)cc1OC)C(N)=O,3700,1.36,1020,1770,5280,,,,,,,
